Measurements: article PMC8554850, “Allergens of the urushiol family promote mitochondrial dysfunction by inhibiting the electron transport at the level of cytochromes b and chemically modify cytochrome c1” (Biological Research, 2021)

Legend:
cytochrome c1 = target: T1, cytochrome c1 (Bos taurus, UniProt P00125); experiment: tritium labelling of mitochondria, 1D and 2D-PAGE photofluorography, western blot, tryptic mass fingerprint; type: binding; details: covalent; labelled compound; 5 µM, 30 min, 25 °C, then chased with 1 mM cold litreol; Lys202 and N-terminal peptide proposed
T1 construct: gene CYC1; native, in isolated heart mitochondria (complex III, inner membrane); about 27 kD on SDS-PAGE; printed peptides SDLELHPPSYPWSHR (1-15) and WAAEPEHDHRK (192-202)
T1 sequence (P00125 85-325): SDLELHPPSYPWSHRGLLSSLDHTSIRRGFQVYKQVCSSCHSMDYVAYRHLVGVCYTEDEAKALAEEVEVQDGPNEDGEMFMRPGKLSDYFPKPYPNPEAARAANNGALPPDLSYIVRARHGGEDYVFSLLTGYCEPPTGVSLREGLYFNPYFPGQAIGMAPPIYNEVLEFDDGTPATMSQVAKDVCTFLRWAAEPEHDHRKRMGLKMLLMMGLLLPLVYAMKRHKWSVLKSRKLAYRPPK

[1] = target: T2, complex III (cytochrome bc1) (Rattus norvegicus, UniProt P00159); experiment: duroquinol:cytochrome c reduction, Hanes-Woolf; cytochrome b redox spectrophotometry; type: biochemical
T2 construct: gene Mt-cyb; native complex III in liver mitochondria / submitochondrial particles; with Cytochrome c1, heme protein, mitochondrial; Cytochrome b-c1 complex subunit Rieske, mitochondrial
T2 sequence (P00159 whole entry): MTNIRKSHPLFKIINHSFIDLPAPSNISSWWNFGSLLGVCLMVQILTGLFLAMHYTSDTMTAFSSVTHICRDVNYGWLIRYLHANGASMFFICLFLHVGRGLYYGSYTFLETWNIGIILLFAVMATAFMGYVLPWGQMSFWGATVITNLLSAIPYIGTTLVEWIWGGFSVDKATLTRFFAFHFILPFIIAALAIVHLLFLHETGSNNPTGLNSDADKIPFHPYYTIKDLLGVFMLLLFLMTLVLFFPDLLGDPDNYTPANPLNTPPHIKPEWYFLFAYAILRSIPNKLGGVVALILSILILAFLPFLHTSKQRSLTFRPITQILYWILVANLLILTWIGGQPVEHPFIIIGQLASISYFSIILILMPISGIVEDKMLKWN
T2 sequence (D3ZFQ8 87-326 partner): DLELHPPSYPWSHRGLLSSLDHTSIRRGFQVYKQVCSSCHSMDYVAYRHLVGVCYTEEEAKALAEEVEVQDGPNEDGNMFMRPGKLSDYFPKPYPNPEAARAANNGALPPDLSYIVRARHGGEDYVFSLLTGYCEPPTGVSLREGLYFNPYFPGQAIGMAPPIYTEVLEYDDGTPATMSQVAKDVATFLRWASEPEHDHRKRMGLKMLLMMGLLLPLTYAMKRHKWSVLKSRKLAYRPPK
T2 sequence (P20788 79-274 partner): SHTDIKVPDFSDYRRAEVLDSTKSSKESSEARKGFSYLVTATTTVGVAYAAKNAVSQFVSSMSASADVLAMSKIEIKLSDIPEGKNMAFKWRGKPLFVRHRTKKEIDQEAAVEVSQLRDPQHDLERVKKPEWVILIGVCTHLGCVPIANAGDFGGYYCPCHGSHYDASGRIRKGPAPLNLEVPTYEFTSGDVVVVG

## CCCCCCCCCCCCCCCc1cccc(O)c1O [3H-litreol]
Cytochrome c1
  tritium labelling of mitochondria, 1D and 2D-PAGE photofluorography, western blo: Litreol binds to an inner mitochondrial membrane protein from bovine heart mitochondria

## Cc1c(C)c(O)c(C)c(C)c1O [duroquinol]
[1]; electron donor, acceptor cytochrome c
  duroquinol:cytochrome c reduction, Hanes-Woolf; cytochrome b redox spectrophotom: The enzyme kinetics of complex III for Dur and cytochrome c were measured

## CCCC/C=C\CCCCCCCCCc1cccc(O)c1O [litreol, 3-(10-Z-pentadecenyl)-catechol]
[1]; noncompetitive vs duroquinol and cytochrome c, 10 µM litreol, electron flow halted between bL and bH, pH 7.4
  duroquinol:cytochrome c reduction, Hanes-Woolf; cytochrome b redox spectrophotom: Litreol is a noncompetitive inhibitor of complex III at the level of the cytochrome bc1
